Experimental data from publication PMC9358681 (Biochemical pharmacology, 2022).
“And” between values parts separate entries of the source, which are not always exact repeats. Identical values can stand only once. Like-named read-outs stand apart in the source and are kept apart here.

Legend:
[1] = molecular target: T1, human A2BAR (Homo sapiens, UniProt P29275); experiment: [3H]PSB-603 displacement on CHO-spap-hA2BAR membranes; type: binding; settings: […] [3H]PSB-603, 2 h, 25 °C
T1 construct: host or cells: CHO-spap
T1 sequence (P29275 1-332): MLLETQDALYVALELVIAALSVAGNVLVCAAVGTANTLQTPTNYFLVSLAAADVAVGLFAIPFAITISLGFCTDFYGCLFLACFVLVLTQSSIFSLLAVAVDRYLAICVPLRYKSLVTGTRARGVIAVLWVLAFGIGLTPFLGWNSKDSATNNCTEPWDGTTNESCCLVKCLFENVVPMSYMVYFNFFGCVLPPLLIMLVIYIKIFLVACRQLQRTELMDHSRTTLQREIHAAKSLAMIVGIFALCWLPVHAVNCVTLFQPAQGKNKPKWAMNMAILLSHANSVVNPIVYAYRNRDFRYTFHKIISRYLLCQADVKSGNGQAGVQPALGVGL

[2] = molecular target: T2, A1 adenosine receptor (Rattus norvegicus, UniProt P25099); experiment: Radioligand binding, rat A1 ([3H]R-PIA, HEK-293); settings: HEK-293, [3H]R-PIA
T2 sequence (P25099 1-326): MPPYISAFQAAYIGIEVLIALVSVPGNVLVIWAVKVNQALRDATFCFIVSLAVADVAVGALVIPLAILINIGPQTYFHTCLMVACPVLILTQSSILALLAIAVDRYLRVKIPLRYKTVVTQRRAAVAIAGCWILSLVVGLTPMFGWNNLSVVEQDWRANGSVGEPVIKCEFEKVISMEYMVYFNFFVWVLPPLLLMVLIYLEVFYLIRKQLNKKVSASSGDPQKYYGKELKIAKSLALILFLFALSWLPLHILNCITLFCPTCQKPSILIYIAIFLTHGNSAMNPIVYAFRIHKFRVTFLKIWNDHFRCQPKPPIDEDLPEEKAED
Excerpt: The A2B receptor selectivity was generally low, especially at the rat A2B receptor.

[3] = molecular target: T3, A2B adenosine receptor (Rattus norvegicus, UniProt P29276); experiment: Radioligand binding, rat A2B ([125I]I-ABOPX, HEK-293); settings: rat (r), HEK-293, [125I]I-ABOPX
T3 sequence (P29276 1-332): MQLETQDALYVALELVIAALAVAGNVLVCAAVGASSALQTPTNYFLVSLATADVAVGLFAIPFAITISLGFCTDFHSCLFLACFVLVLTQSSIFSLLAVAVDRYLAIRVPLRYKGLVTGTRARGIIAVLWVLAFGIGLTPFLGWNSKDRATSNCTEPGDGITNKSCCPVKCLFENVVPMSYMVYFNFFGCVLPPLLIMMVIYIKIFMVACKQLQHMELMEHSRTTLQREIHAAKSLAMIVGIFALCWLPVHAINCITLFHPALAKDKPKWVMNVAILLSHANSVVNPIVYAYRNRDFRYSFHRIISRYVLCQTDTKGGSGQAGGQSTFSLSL

[4] = molecular target: T1, human A2BAR; experiment: [3H]PSB-603 competition association assay; type: binding; settings: for RT: RT = 1/koff, competing ligand at 1.0-fold IC50, up to 3 hr, 25 °C; for koff: read-out: koff (converted); for kon: read-out: kon (converted)
Experimental: In all radioligand binding experiments, CHO-spap-hA2BAR membranes were thawed and homogenized using an Ultra Turrax homogenizer at 24,000 rpm (IKA-Werke GmbH & Co.KG, Staufen, Germany), diluted in assay buffer to the desired concentration (10–30 μg per well or Eppendorf tube). All materials were brought to 25 °C, 30 min prior to the experiment. ZM241385 (10 μM) was used to determine nonspecific binding (NSB).
Addition of CHO-spap-hA2BAR membrane aliquots initiated the association. The amount of receptor-bound radioligand was determined at different time points up to 3 hr. After 3 hr the incubation was terminated and samples were obtained as described under “Displacement experiments”.
All competition association data were globally fitted.

[5] = molecular target: A2A adenosine receptor (Rattus norvegicus, UniProt P30543); experiment: Radioligand binding, rat A2A ([3H]CGS21680, HEK-293); settings: rat (r), HEK-293, [3H]CGS21680
Chain of A2A adenosine receptor (P30543 whole entry): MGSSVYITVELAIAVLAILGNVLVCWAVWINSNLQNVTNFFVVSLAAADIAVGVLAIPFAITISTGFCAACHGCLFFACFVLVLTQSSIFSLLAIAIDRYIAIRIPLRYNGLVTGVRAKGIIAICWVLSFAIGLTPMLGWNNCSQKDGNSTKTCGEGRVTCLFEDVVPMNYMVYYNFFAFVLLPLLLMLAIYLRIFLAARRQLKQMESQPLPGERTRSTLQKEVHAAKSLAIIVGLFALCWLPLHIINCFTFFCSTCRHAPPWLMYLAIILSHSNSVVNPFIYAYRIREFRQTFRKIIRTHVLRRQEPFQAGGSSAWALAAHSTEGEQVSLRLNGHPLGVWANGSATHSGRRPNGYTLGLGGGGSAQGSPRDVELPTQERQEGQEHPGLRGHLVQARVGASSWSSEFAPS

Row | Ki ([1]; read-out: Ki (converted)) | Ki [2] | Ki [3] | RT [4] | koff [4] | kon [4] | Ki [5] | Compound | further results
1 | 36.3 nM | 10.7 ± 1.75 nM | 36.6 ± 5.1 nM | 0.9 min and 0.9 ± 0.0 min | 0.0178 s⁻¹ | 600000 M⁻¹ s⁻¹ | 51.7 ± 19.6 nM | CCCn1c(=O)c2[nH]c(-c3ccc(OCC(=O)NC4CC4)cc3)nc2n(CCC)c1=O [Compound 3, N-cyclopropyl-2-(4-(2,6-dioxo-1,3-dipropyl-2,3,6,7-tetrahydro-1H-purin-8-yl)phenoxy)acetamide] | 
2 | 951 nM | 23 ± 4.1 nM | 73.5 ± 25.8 nM |  |  |  | 19.3 ± 6.7 nM | CCCn1c(=O)c2[nH]c(-c3ccc(OCC(=O)NC4CCCCC4)cc3)nc2n(CCC)c1=O [Compound 7, N-cyclohexyl-2-(4-(2,6-dioxo-1,3-dipropyl-2,3,6,7-tetrahydro-1H-purin-8-yl)phenoxy)acetamide] | 
3 | 1.93 nM |  |  | 46 min and 46 ± 13 min | 0.000367 s⁻¹ | 250000 M⁻¹ s⁻¹ |  | CCCn1c(=O)c2[nH]c(-c3ccc(OCC(=O)Nc4ccccc4)cc3)nc2n(CCC)c1=O [Compound 8] | 

More lines, now with the values behind:

Row | Compound | Ki ([1]; read-out: Ki (converted)) | Ki [2] | Ki [3] | RT [4] | koff [4] | kon [4] | Ki [5] | further results
4 | 2-(4-(2,6-dioxo-1,3-dipropyl-2,3,6,7-tetrahydro-1H-purin-8-yl) phenoxy)-N-(pyridin-4-ylmethyl)acetamide [Compound 9] | 1350 nM |  |  |  |  |  |  | pKi [1]: 5.87 ± 0.16
5 | CCCn1c(=O)c2[nH]c(-c3ccc(OCC(=O)NC4CCC4)cc3)nc2n(CCC)c1=O [Compound 4, N-cyclobutyl-2-(4-(2,6-dioxo-1,3-dipropyl-2,3,6,7-tetrahydro-1H-purin-8-yl)phenoxy)acetamide] | 61400 nM |  |  |  |  |  |  | Ki ([1]; read-out: affinity (Ki)): 61400 nM
6 | CCCn1c(=O)c2[nH]c(-c3ccc(OCC(=O)NC4CCCC4)cc3)nc2n(CCC)c1=O [Compound 5, N-cyclopentyl-2-(4-(2,6-dioxo-1,3-dipropyl-2,3,6,7-tetrahydro-1H-purin-8-yl)phenoxy)acetamide] | 16700 nM | 13.9 ± 1.8 nM | 26.3 nM |  |  |  | 19.1 ± 5.1 nM | 
7 | CCCn1c(=O)c2[nH]c(-c3ccc(OCC(=O)Nc4cc[nH]n4)cc3)nc2n(CCC)c1=O [Compound 6, 2-(4-(2,6-dioxo-1,3-dipropyl-2,3,6,7-tetrahydro-1H-purin-8-yl)phenoxy)-N-(1H-pyrazol-3-yl)acetamide] | 5480 nM |  |  |  |  |  |  | 
8 | CCCn1c(=O)c2[nH]c(-c3ccc(OCC(=O)Nc4cnccn4)cc3)nc2n(CCC)c1=O [Compound 10, 2-(4-(2,6-dioxo-1,3-dipropyl-2,3,6,7-tetrahydro-1H-purin-8-yl)phenoxy)-N-(pyrazin-2-yl)acetamide] | 6950 nM |  |  |  |  |  |  | 
9 | CCCn1c(=O)c2[nH]c(-c3ccc(OCC(=O)N(CC(=O)OCC)CC(=O)OCC)cc3)nc2n(CCC)c1=O [Compound 11] |  |  |  |  |  |  |  | Ki ([1]; read-out: pKi (converted)): 112 nM
10 | CCCn1c(=O)c2[nH]c(-c3ccc(OCC(=O)Nc4ccc(C)cc4)cc3)nc2n(CCC)c1=O [Compound 12] | 3.42 nM |  |  | 55 ± 25 min | 0.0003 s⁻¹ | 117000 M⁻¹ s⁻¹ |  | Kd ([4]; read-out: Kinetic KD (koff/kon)): 2.7 ± 1.5 nM
